{"source": "paper PMC11784013", "about": "“Potassium molybdate blocks APN-dependent coronavirus entry by degrading receptor via PIK3C3-mediated autophagy” (Journal of Virology, 2024)", "key": {"intestinal organoids": {"system": "intestinal organoids", "assay": "Cell Counting Kit 8 cytotoxicity assay in intestinal organoids", "assay_type": "cell-based, porcine", "conditions": "PM at concentrations less than 30 mM, 24 h", "description": "(§1) Fig 2 PM restricts TGEV and PRCV infection in porcine intestinal organoids. (A) Intestinal organoids cultured in 96-well plate were incubated with different concentrations of PM for 24 h, which was tested by Cell Counting Kit 8. (B and C) The intestinal organoids monolayer was treated with indicated PM and infected with TGEV Miller (0.1 MOI) for 24 h, which was measured by IFA (B), scale bar: 50 µm, RT-qPCR, TCID50, and western blot (C). (D) Apical-out intestinal organoids were treated with indicated PM and infected TGEV Miller (1 MOI) for 48 h, which was determined by RT-qPCR, TCID50, and western blot. (E and F) The intestinal organoids monolayer was treated with different concentrations of PM and infected with PRCV for 24 h, which was determined by IFA (E), scale bar: 50 µm, RT-qPCR, TCID50, and western blot (F). (G) Apical-out intestinal organoids were treated with indicated PM and infected PRCV (1 MOI) for 48 h, which was detected by RT-qPCR, TCID50, and western blot. Results are presented as mean ± SD of data from three independent experiments. **, P ≤ 0.01; ***, P ≤ 0.001.\nST cells or intestinal organoids cultured in a 96-well plate were incubated with different concentrations of PM (0, 0.1, 0.25, 0.5, 1, 2.5, 5, 10, 20, and 30 mM) for 24 h. […] The absorbance of each well was then measured at 450 nm using a microplate reader to determine cell viability."}, "PRCV [1]": {"system": "PRCV", "assay": "PRCV infection of porcine intestinal organoids (monolayer, apical-out)", "assay_type": "cell-based, porcine respiratory coronavirus", "conditions": "monolayer 24 h; apical-out 1 MOI, 48 h; IFA, RT-qPCR, TCID50, western blot", "description": "as §1\nPorcine 3D ileum organoids coated with Matrigel for 1 week were dissociated by incubation in 5 mM cold EDTA buffer on a rotating platform for 1 h at 4°C. […]"}, "TGEV Miller": {"system": "TGEV Miller", "assay": "TGEV infection of ST cells (RT-qPCR, TCID50, western blot, IFA)", "assay_type": "cell-based, transmissible gastroenteritis virus", "conditions": "TGEV Miller 0.1 MOI, PM 1 h pretreatment and 17 h after infection, TCID50, western blot, IFA", "description": "Fig 1 PM inhibits TGEV and PRCV infection in ST cells. (A) A cytotoxicity assay of PM in ST cells. ST cells cultured in a 96-well plate were incubated with different concentrations of PM for 24 h, which was tested by Cell Counting Kit 8. (B) Time course for PM inhibiting TGEV or PRCV or PEDV infection assay. (C–F) The ST cells, pretreated with PM at the indicated concentrations for 1 h were infected with TGEV Miller (0.1 MOI) or PRCV (0.1 MOI) for 1 h and were again treated with PM at 37°C for 17 h. The cell samples were collected and examined by real-time quantitative PCR (RT-qPCR), TCID50, western blot (C and D), and immunofluorescence assay (IFA) (E and F), scale bar: 50 µm. (G) Vero-E6 cells were treated with indicated PM and infected with PEDV LJX 01/2014 according to the time course of Fig. 1B, which was detected by TCID50 and western blot. Results are presented as mean ± SD of data from three independent experiments. ns, no significant; **, P ≤ 0.01; ***, P ≤ 0.001.\nFig 3 PM inhibits TGEV and PRCV infection by potassium ion and molybdate synergy. […] The cell samples were measured by RT-qPCR. (C and D) ST cells were treated with PM (K2MoO4, 10 mM), KCl (20 mM), Na2MoO4 (10 mM), sodium chloride (NaCl, 10 mM), K2MoO4 (10 mM), and NaCl (20 mM) as well as Na2MoO4 (10 mM) and KCl (20 mM) for 1 h and then infected with TGEV Miller (0.1 MOI) or PRCV (0.1 MOI) for 17 h, which was determined by RT-qPCR and TCID50. […]\nTotal RNA was extracted using RNAiso reagent (TaKaRa, Japan, 9109) and reverse transcribed into cDNA using HiScript Q RT SuperMix for qPCR (Vazyme, China, R223-01), both of which followed the manufacturer’s recommendations. The TGEV and PRCV virus copy numbers were detected by the TaqMan probe-based RT-qPCR method developed previously in our laboratory ([59]). Relative qPCR was also performed using ChamQ SYBR qPCR master mix (Vazyme, China, Q311-02), and the results were calculated via the 2^-ΔΔCT method."}, "PRCV [2]": {"system": "PRCV", "assay": "PRCV entry assay in ST cells", "assay_type": "cell-based, porcine respiratory coronavirus", "conditions": "PM 10 mM, PRCV 0.1 MOI, 1 or 2 h at 37°C, RT-qPCR and IFA", "description": "Fig. S4. […] (A and B) Entry assay. ST cells were infected with 0.1\nMOI PRCV for 1 h at 4 °C, and were then treated with PM (10 mΜ) or H2O for 1 h or 2 h at 37 °C. The cells samples were washed using sodium citrate buffer and detected by RT-qPCR (A) and IFA (B), Scale bar: 50 μm /5 μm. Results are presented as mean ± SD of data from three independent experiments ***, (also on this page, place not known: 0.0 0.5 1.0 1.5 Relative genomic RNA level *** *** DAPIPRCV PM H2O 1h 2h 1 2 3 4 5 H2O PM Viral load (log copies/ul) *** *** 1h 2h CollectedPM/H2O) […]"}}, "note": "Entries after “also recorded” stand apart in the source; their conditions may differ."}
{"smiles": "[K+].[K+].[O]=[Mo](=[O])([O-])[O-]", "note": "[PM, potassium molybdate]", "values": [{"measurement": "cytotoxicity (Cell Counting Kit 8)", "setting": "intestinal organoids", "value": "did not cause significant cytotoxicity"}, {"measurement": "PRCV infection in organoid monolayer and apical-out organoids", "setting": "PRCV [1]", "value": "the same phenotypes were found"}, {"measurement": "TGEV infection", "setting": "TGEV Miller", "value": "effectively restricted"}, {"measurement": "PRCV entry (internalization)", "setting": "PRCV [2]", "value": "blocks PRCV internalization; also recorded: The same results were also demonstrated for PRCV infection"}]}
